Test results reported in PubChem BioAssay (NCI).
Where “and” joins values, the source holds several entries; their conditions need not be identical. Equal values may be shown once.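 Five concentrations, 48 hours, 96-well plates. GI50 = concentration required for 50% inhibition of growth. At the TGI there is no net growth.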

Legend:
Assay in all cases: inhibition of tumour cell growth, NCI panel, 48 h
[1] = tested on: IGROV1 ovarian
[2] = tested on: MCF7 breast
[3] = tested on: NCI-H23 lung
[4] = tested on: OVCAR-4 ovarian
[5] = tested on: OVCAR-5 ovarian
[6] = tested on: OVCAR-8 ovarian
[7] = tested on: PC-3 prostate
[8] = tested on: SF-268 CNS
[9] = tested on: UACC-62 melanoma
[10] = tested on: HOP-92 NSCLC

Row | Compound | GI50 [1] [µM] | TGI [1] | GI50 [2] [nM] | TGI [2] [µM] | GI50 [3] [µM] | TGI [3] | GI50 [4] [µM] | TGI [4] | GI50 [5] [µM] | TGI [5] | GI50 [6] [µM] | TGI [6] | GI50 [7] [nM] | TGI [7] [µM] | GI50 [8] [µM] | TGI [8] | GI50 [9] [µM] | TGI [9] | TGI [10] | GI50 [10] [µM]
1 | O=C(Nc1cccc(-n2cc(-c3ccncc3)c(-c3cc(O)cc(Cl)c3)n2)c1)c1cc(C(F)(F)F)cc(C(F)(F)F)c1 | 7.96 | > 100 µM | 2860 | > 100 | 4.16 | 46.5 µM | 8.53 | > 100 µM | 8.23 | 38.4 µM | 3.58 | > 100 µM | 2280 | 22.5 | 6.38 | > 100 µM | 3.79 | 22.4 µM | – | –
2 | C[N+](C)(C)CC1CCCC1=O (centres undefined) | – | 32.3 µM | – | – | – | 9.67 µM | – | 1.8 µM | – | 14.8 µM | – | 4.99 µM | – | 2.91 | – | 20.8 µM | – | 5.67 µM | 2.66 µM | –
3 | CCOC(=O)/C(C#N)=C(O)/C(=C\c1ccc(Br)cc1)NC(=O)c1ccccc1 | – | > 100 µM | – | – | – | > 100 µM | – | > 100 µM | – | > 100 µM | – | > 100 µM | – | – | – | > 100 µM | – | > 100 µM | > 100 µM | –
4 | CCN(CC)c1ccc2c(c1)Oc1ccc(N(CC)CC)cc1C21Oc2ccccc2-c2c1c1ccccc1n2CC (centres undefined) | – | – | – | – | – | 8.01 µM | – | > 100 µM | – | – | – | > 100 µM | – | – | – | > 100 µM | – | > 100 µM | 2.12 µM | –
5 | Cc1ccc(NC(=O)CC2C(=O)Nc3ccccc3S2(=O)=O)c(C)c1 (centres undefined) | – | 28.8 µM | – | – | – | 37.2 µM | – | 41.2 µM | – | 46.9 µM | – | 34.6 µM | – | – | – | 39.6 µM | – | 50.5 µM | 31 µM | –
6 | COc1cc2c(cc1OCCCCN1CCN(C(=S)SCCC(C#N)(c3ccccc3)c3ccccc3)CC1)N=C[C@@H]1CCCN1C2=O | – | – | 435 | 2.23 | – | – | 1.82 | 17.7 µM | 2.47 | 5.38 µM | 1.59 | > 100 µM | 697 | 2.41 | – | – | 1.32 | 3.55 µM | 14.3 µM | 1.07
7 | COc1cc2c(cc1OC)-c1ncc3c(OC)c(OC)c(OC)cc3c1C2 | – | – | 4140 | 18.7 | – | – | 96.5 | > 100 µM | 26.6 | > 100 µM | 16.3 | 38.5 µM | > 100000 | > 100 | 4.97 | 16.5 µM | 3.84 | 25.6 µM | > 100 µM | 58.5
8 | Cc1nc(C(=O)O)c2ccccc2n1 | – | > 100 µM | – | – | – | > 100 µM | – | – | – | > 100 µM | – | > 100 µM | – | – | – | > 100 µM | – | > 100 µM | > 100 µM | –
9 | CC(C)(Br)C(=O)C(Br)Br | 3.66 | 21.8 µM and 8.09 µM | – | – | 5.84 | 15.7 µM and 10.5 µM | – | 10.9 µM and 9.91 µM | 5.26 | 30.6 µM and 9.58 µM | – | 14.9 µM and 9.13 µM | – | 11 | 7.42 | 27.1 µM and 26 µM | 5.85 | 22.5 µM and 10.2 µM | 3.16 µM and 8.12 µM | 4
10 | NC(=O)NNC(=O)NC12CC3CC(CC(C3)C1)C2 | – | > 100 µM | – | – | – | > 100 µM | – | > 100 µM | – | > 100 µM | – | > 100 µM | – | – | – | > 100 µM | – | > 100 µM | > 100 µM | –
11 | Cc1ccc(C)c(N2C(=O)C(=O)C(c3nc4ccccc4s3)/C(=N/NC(=O)NN)C2=O)c1 (centres undefined) | – | > 100 µM | – | – | – | > 100 µM | – | > 100 µM | – | – | – | > 100 µM | – | – | – | > 100 µM | – | > 100 µM | > 100 µM | –
12 | O=C1Nc2ccccc2N=CC1NC(=O)C(c1ccccc1)c1ccccc1 (centres undefined) | – | > 100 µM | – | – | – | > 100 µM | – | > 100 µM | – | > 100 µM | – | > 100 µM | – | – | – | > 100 µM | – | > 100 µM | > 100 µM | –
13 | C=C1CCC2[C@@H](CCC3[C@]2(C)CCC[C@]3(C)C(=O)OC)C1CC=O (some centres undefined) | – | 38.6 µM | – | – | – | 35.4 µM | – | 32 µM | 16.7 | 31.8 µM | – | 37.3 µM | – | – | – | 35.1 µM | – | 31.6 µM | 27.8 µM | –
14 | O=C(CC1SC(=Nc2ccccc2Cl)NC1=O)Nc1ccc(Cl)cc1Cl (centres undefined) | – | > 100 µM | – | – | – | > 100 µM | – | > 100 µM | – | > 100 µM | – | > 100 µM | – | – | – | > 100 µM | – | > 100 µM | > 100 µM | –
15 | O=C(O)/C=C/c1nc2ccccc2c(=O)o1 | – | > 100 µM | – | – | – | > 100 µM | – | > 100 µM | – | – | – | > 100 µM | – | – | – | – | – | > 100 µM | > 100 µM | –
16 | C/C(=C\c1cnc(C)s1)[C@@H]1C[C@@H]2O[C@@H]2CCC[C@H](C)[C@H](O)[C@@H](C)C(=O)C(C)(C)[C@@H](O)CC(=O)O1 | 0.0103 | > 100 µM | < 10 | > 100 | < 0.01 | > 100 µM | – | > 100 µM | < 0.01 | > 100 µM | < 0.01 | > 100 µM | < 10 | > 100 | – | – | < 0.01 | > 100 µM | > 100 µM | < 0.0162
17 | COC(=O)[C@@]1(C(C)CC(=O)O)CCCCC1=O (some centres undefined) | – | > 100 µM | – | – | – | > 100 µM | – | > 100 µM | – | > 100 µM | – | > 100 µM | – | – | – | > 100 µM | – | > 100 µM | > 100 µM | –
18 | O=S(=O)(/C=C/C(=C/c1ccccc1)S(=O)(=O)c1ccccc1)c1ccccc1 | – | 25 µM | – | – | – | 3.56 µM | – | 3.07 µM | – | – | – | 3.08 µM | – | – | – | 4.1 µM | – | 3.85 µM | – | –
19 | COc1ccc(CCC2c3cc(OC)c(OC)cc3CCN2C)cc1OC (centres undefined) | – | > 100 µM | – | – | – | > 100 µM | – | > 100 µM | – | > 100 µM | – | > 100 µM | – | – | – | > 100 µM | – | > 100 µM | > 100 µM | –
20 | C=CNC(=O)NC(=O)CSc1nnc(-c2ccccc2NC(=O)C(F)(F)F)c(=O)[nH]1 | – | > 100 µM | – | – | – | > 100 µM | – | – | – | > 100 µM | – | > 100 µM | – | – | – | > 100 µM | – | > 100 µM | 86.6 µM | –
21 | CC1(c2ccccc2Cl)C(C#N)C(=O)NC(=O)C1C#N (centres undefined) | – | > 100 µM | – | – | – | > 100 µM | – | > 100 µM | – | > 100 µM | – | > 100 µM | – | – | – | > 100 µM | – | > 100 µM | 59.8 µM | –
22 | Nc1c([N+](=O)[O-])nc(Cl)c2nncn12 | – | > 100 µM | – | – | – | > 100 µM | – | > 100 µM | – | > 100 µM | – | > 100 µM | – | – | – | > 100 µM | – | > 100 µM | > 100 µM | –
